# ChEMBL document CHEMBL1151070 (Bioorg Med Chem Lett, 1995)
# Experiments:
# [1] = target: T1, Protein kinase C beta type (Homo sapiens, UniProt P05771); experiment: Inhibition of human Protein kinase C beta 1
# [2] = target: Protein kinase C delta type (Homo sapiens, UniProt Q05655); experiment: Inhibition of human Protein kinase C delta
# [3] = target: T1, Protein kinase C beta type; experiment: Inhibition of human Protein kinase C beta 2
# [4] = target: Protein kinase C alpha type (Homo sapiens, UniProt P17252); experiment: Inhibition of human Protein kinase C alpha
# [5] = target: T2, Protein kinase C epsilon type (Homo sapiens, UniProt Q02156); experiment: Inhibition of human Protein kinase C epsilon
# T2 sequence (Q02156 whole entry): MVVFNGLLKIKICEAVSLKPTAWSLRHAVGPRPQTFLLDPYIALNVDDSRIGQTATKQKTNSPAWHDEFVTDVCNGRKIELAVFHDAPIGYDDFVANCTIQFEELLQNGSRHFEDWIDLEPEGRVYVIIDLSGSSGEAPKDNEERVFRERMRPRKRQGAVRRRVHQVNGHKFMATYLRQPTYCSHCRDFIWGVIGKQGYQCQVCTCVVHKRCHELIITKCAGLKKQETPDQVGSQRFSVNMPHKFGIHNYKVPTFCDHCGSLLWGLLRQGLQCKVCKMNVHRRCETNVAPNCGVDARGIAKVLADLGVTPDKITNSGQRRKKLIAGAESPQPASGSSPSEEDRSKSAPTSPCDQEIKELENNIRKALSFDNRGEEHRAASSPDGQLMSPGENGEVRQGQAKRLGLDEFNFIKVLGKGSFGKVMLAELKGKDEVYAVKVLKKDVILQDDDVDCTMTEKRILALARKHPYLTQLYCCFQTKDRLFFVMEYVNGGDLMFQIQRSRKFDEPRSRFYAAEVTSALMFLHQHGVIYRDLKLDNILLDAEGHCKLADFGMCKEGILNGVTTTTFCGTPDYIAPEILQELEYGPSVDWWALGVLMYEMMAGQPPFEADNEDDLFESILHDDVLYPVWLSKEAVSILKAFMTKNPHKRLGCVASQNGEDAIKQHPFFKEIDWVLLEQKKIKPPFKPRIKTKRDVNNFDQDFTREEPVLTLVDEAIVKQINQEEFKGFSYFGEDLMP
# [6] = target: Protein kinase C eta type (Homo sapiens, UniProt P24723); experiment: Inhibition of human Protein Kinase C eta
# Sequence of Protein kinase C eta type (P24723 whole entry): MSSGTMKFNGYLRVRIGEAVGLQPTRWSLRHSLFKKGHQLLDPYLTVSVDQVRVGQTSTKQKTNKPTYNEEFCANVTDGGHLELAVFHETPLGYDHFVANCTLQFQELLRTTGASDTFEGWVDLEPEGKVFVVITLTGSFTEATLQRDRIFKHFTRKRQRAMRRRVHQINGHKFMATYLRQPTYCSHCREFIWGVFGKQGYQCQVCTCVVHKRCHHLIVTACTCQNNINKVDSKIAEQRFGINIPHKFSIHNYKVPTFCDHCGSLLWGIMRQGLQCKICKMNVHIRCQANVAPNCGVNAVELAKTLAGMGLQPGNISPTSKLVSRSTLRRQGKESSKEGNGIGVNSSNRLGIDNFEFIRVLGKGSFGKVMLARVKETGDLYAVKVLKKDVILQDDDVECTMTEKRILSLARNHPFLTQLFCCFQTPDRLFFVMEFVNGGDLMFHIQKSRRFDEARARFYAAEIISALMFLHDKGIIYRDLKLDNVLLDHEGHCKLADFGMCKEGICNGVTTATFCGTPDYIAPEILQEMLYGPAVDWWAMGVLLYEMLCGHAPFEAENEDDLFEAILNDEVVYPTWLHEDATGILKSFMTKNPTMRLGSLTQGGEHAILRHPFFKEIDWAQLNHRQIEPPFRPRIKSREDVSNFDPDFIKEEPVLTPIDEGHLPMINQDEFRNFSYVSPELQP
# [7] = target: Protein kinase C gamma type (Homo sapiens, UniProt P05129); experiment: Inhibition of human Protein kinase C gamma
# [8] = target: T3, Protein kinase C zeta type (Homo sapiens, UniProt Q05513); experiment: Inhibition of Protein kinase C zeta
# T3 sequence (Q05513 whole entry): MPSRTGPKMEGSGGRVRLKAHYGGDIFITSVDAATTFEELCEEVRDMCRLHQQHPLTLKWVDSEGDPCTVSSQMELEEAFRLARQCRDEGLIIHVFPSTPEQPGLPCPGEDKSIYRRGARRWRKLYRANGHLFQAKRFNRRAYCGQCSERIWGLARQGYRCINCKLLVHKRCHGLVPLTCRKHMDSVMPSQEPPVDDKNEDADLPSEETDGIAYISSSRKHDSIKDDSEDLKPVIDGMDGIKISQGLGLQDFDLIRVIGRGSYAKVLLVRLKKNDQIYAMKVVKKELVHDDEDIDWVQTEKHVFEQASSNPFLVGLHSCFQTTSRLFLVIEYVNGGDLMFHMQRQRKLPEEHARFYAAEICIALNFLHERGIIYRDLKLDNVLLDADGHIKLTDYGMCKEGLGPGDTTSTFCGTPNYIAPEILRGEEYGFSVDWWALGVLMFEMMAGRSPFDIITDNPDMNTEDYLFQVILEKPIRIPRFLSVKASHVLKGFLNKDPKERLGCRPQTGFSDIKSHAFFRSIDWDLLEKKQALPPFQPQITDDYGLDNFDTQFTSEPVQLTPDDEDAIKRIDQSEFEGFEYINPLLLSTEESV
# T1 sequence (P05771 whole entry): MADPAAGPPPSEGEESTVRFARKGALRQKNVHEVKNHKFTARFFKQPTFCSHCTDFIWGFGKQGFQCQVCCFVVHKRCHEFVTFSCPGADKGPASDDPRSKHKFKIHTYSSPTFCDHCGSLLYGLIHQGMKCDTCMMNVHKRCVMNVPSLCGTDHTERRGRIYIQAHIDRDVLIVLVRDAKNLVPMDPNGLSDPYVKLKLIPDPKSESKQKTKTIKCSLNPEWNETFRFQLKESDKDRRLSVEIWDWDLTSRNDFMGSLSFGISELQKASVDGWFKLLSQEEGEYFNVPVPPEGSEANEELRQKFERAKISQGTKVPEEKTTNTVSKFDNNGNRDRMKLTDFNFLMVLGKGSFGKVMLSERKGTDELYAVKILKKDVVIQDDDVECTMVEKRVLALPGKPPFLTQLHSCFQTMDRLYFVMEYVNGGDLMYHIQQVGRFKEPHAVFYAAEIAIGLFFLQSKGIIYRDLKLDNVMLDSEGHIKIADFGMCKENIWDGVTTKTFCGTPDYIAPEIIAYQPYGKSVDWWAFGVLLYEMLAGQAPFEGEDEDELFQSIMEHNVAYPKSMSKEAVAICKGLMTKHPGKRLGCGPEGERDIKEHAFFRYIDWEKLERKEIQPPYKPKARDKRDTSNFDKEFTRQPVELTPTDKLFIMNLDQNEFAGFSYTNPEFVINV
# Sequence of Protein kinase C delta type (Q05655 whole entry): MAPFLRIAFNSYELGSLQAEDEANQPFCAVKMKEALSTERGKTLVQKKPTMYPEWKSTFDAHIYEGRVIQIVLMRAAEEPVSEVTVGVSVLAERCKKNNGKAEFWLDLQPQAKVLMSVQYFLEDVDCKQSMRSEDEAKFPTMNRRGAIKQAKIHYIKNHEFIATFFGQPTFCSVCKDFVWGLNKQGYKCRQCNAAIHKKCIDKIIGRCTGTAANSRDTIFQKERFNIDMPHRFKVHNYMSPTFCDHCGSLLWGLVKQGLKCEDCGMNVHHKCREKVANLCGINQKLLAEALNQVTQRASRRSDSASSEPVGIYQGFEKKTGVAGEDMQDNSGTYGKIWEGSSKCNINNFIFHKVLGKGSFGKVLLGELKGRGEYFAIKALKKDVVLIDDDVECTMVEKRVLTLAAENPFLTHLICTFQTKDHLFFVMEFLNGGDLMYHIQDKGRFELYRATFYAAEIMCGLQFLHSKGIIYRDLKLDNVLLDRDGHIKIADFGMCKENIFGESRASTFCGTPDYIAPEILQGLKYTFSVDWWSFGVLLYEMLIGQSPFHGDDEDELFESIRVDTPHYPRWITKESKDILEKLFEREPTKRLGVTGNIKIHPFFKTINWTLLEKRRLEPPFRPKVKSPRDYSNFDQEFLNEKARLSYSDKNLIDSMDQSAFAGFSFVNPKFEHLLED
IC50 [1] [nM],IC50 [2] [nM],IC50 [3] [nM],IC50 [4] [nM],IC50 [5] [nM],IC50 [6] [nM],IC50 [7] [nM],IC50 [8] [nM],Compound
4,4,3,10,160,2,5,–,O=C(N[C@H]1C[C@H](CO)C[C@H]1OC(=O)c1cc(O)c(C(=O)c2c(O)cccc2C(=O)O)c(O)c1)c1ccc(O)cc1
20,6,20,50,150,4,30,–,O=C(N[C@H]1C[C@H](O)C[C@H]1OC(=O)c1cc(O)c(C(=O)c2c(O)cccc2C(=O)O)c(O)c1)c1ccc(O)cc1
–,30,40,70,–,–,–,–,O=C(N[C@@H]1CNCCC[C@H]1OC(=O)c1cc(O)c(C(=O)c2c(O)cccc2C(=O)O)c(O)c1)c1ccc(O)cc1 (racemic) [BALANOL]
20,5,10,40,100,3,20,–,"O=C(N[C@H]1C[C@@H](O)C[C@H]1OC(=O)c1cc(O)c(C(=O)c2c(O)cccc2C(=O)O)c(O)c1)c1ccc(O)cc1.O=C(N[C@H]1C[C@H](O)C[C@H]1OC(=O)c1cc(O)c(C(=O)c2c(O)cccc2C(=O)O)c(O)c1)c1ccc(O)cc1 (single isomer, unassigned)"
4,6,4,20,30,3,5,2800,NC[C@H]1C[C@H](NC(=O)c2ccc(O)cc2)[C@H](OC(=O)c2cc(O)c(C(=O)c3c(O)cccc3C(=O)O)c(O)c2)C1
5,20,5,20,30,3,10,3100,NC[C@@H]1C[C@H](NC(=O)c2ccc(O)cc2)[C@H](OC(=O)c2cc(O)c(C(=O)c3c(O)cccc3C(=O)O)c(O)c2)C1
4,5,2,20,10,2,5,1200,N[C@@H]1C[C@H](NC(=O)c2ccc(O)cc2)[C@H](OC(=O)c2cc(O)c(C(=O)c3c(O)cccc3C(=O)O)c(O)c2)C1
60,20,20,80,260,20,45,–,O=C(N[C@H]1C[C@@H](CO)C[C@H]1OC(=O)c1cc(O)c(C(=O)c2c(O)cccc2C(=O)O)c(O)c1)c1ccc(O)cc1
